Test [1] concerns Sprague-Dawley rats. Briefly: Kainic acid induced seizures in rats. The format is in vivo, rat. Further details: key to Seizures Severity Mean ± SD (grade 0 to IV): seizure grade 0 = no response to IV = status epilepticus. Conditions: 20 μmoles/kg IP; for Seizures Severity Mean ± SD (grade 0 to IV) / Seizures Mean ± SD (1 = yes, 0 = no): KA 15 mg/kg i.p.; for Seizures Mean ± SD (1 = yes, 0 = no): 2 hours; for change in vivo at 20 µmol/kg: Rattus norvegicus, 2 h, vs DMSO control. The protocol: Formulation of kainic acid was performed by NTS as a stock solution by reconstituting kainic acid with (100%) saline that was stored at 4° C. Vehicle control received saline solution. […] The research investigators were blinded to the treatment groups.
Solutions were prepared fresh daily just prior to use; dosing of all 10 rats with any given compound occurred on a single day after preparing the dosing solution. […] Unused remaining dosing solutions were stored frozen.
Animals were maintained in a temperature- and light-controlled environment in accord with the principles and procedures of the National Institutes of Health Guidelines for Care and Use of Laboratory Animals. Seizures were induced in adult, male Sprague-Dawley rats (260-300 g) by injection of KA (15 mg/kg, i.p.). In addition, animals were injected with test compounds following kainic acid to determine the effects on protection from epilepsy. Animals were monitored behaviorally for seizures for 2 hours after injection.
Seizure activity was initially characterized as either yes (1) or no (0) within a 2 hour period following injection of KA. A seizure severity grade was assigned based on the maximal response achieved on a scale from 0 to IV as follows: 0, no response; I, single limb clonus and scratching; II, multiple limb clonus and staggering gait; […], limb clonus, tonic extension of limbs and falling; IV, continuous grade III seizures for longer than 30 min (status epilepticus).
The results were expressed as the mean±standard deviation (SD). The significance of difference in the epileptic data was analyzed using a one-way analysis of variance (ANOVA) followed by Fisher's post hoc test. Repeated-measures ANOVA were computed on the monitoring data and the significance of the difference among groups were evaluated by Fisher's post hoc test.
All groups were subjected to kainic acid.
The induction of seizures in rats with kainic acid was determined as either yes seizures (1) or no seizures (0).

Test [2] deals with T1, Na+K+Cl− co-transporter (Rattus norvegicus, UniProt E9PTX9).
T1 construct: endogenous in cells; host or cells: A7r5 cells
T1 sequence (E9PTX9 1-1203): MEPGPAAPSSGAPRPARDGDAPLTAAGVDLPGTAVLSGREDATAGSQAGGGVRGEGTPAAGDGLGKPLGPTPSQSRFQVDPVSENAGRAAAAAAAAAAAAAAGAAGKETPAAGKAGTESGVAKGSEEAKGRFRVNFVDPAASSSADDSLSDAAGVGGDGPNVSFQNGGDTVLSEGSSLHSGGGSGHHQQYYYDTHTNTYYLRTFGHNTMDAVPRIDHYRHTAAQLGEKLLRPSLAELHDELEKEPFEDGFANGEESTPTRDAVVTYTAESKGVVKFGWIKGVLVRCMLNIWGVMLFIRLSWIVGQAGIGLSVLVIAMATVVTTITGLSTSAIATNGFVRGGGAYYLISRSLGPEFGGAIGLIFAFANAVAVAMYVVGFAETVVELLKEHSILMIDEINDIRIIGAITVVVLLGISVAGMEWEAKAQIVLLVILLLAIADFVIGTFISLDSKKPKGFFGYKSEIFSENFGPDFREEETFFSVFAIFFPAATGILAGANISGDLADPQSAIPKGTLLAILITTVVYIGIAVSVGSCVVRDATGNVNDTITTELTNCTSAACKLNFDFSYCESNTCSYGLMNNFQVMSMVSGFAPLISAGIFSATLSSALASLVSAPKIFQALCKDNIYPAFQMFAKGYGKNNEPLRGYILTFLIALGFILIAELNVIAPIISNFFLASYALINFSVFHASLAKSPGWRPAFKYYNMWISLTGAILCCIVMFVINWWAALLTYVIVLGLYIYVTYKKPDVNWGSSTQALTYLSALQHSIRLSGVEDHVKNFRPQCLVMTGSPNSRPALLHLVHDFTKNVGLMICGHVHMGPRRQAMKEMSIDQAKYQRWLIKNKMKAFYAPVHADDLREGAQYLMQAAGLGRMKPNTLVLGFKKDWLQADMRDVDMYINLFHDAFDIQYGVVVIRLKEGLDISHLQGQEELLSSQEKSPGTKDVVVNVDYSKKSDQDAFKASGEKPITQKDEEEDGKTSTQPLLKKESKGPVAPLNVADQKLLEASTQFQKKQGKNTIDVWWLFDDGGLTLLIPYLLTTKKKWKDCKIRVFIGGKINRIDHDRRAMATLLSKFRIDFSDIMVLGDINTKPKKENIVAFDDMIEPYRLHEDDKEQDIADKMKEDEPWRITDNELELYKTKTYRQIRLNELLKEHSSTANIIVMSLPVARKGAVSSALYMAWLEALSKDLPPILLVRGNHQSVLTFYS
The test can be described thus: Na+K+Cl− cotransporter assay, 86Rb uptake in A7r5 cells. The test is classed as cell-based. Particulars: 10 minutes at 37° C.; for % Inhibition of Control Values / % of Control Value: 10 μM; for inhibition at 10 µM: read-out: % Inhibition of Control Values; for remaining activity at 10 µM: read-out: % of Control Value. The protocol:
Na^+K^+Cl^− co-transporter activity was measured in vitro in A7r5 cells by measuring their uptake of ^86Rb (0.2 μCi) in 10 minutes at 37° C. as detected by scintillation counting. See Chassande, et al. (1988) “The Na^+/K^+/Cl^− Cotransport in C6 glioma cells. Properties and role in volume regulation.” Eur. J. Biochem. 171: 425433.

The mark [3] stands for this setting: read-out: Percent reduction in Seizures.
[4] abbreviates: read-out: Percent reduction in Seizures Severity.

Structures are written as SMILES. Read-outs that look alike come from different tables or passages of the source.

For the compound `CCCCNc1cc(C(=O)N(C)C)cc(S(N)(=O)=O)c1Oc1ccccc1` [NTP-2015, N,N-Dimethyl 3-Aminosulfonyl-5-N-butylamino-4-phenoxybenzamide], in test [1], the “Seizures Severity Mean ± SD (grade 0 to IV)” value (“Seizures Severity Mean ± SD” for short) turned out to be 1.100 ± 1.197 and the “Seizures Mean ± SD (1 = yes, 0 = no)” value is 0.5000 ± 0.5270. Besides, the change in vivo at 20 µmol/kg in test [1] (setting [3]) is -44.4%. The change in vivo at 20 µmol/kg in test [1] (setting [4]) is -54.2%.
For the compound `CCCCNc1cc(C(=O)O[C@@H](C)c2ccccc2)cc(S(N)(=O)=O)c1Oc1ccccc1` [NTP-2036, (S)-α-Methylbenzyl 3-Aminosulfonyl-5-N-butylamino-4-phenoxybenzoate], in test [2], the “% Inhibition of Control Values” was determined as 20% and the “% of Control Value” came to 80.1%.
As to `CCCCNc1cc(C(=O)N2CCCC2)cc(S(N)(=O)=O)c1Oc1ccccc1` [NTP-2022, N-Pyrrolidinyl Aminosulfonyl-5-N-butylamino-4-phenoxybenzamide], in test [2], the inhibition (in general, the relative decrease from the control value, in per cent) at 10 µM came out at 7% and the remaining activity at 10 µM came to 92.7%. Further, in test [1], the “Seizures Severity Mean ± SD” value stood at 1.100 ± 1.101 and the “Seizures Mean ± SD (1 = yes, 0 = no)” value is given as 0.6000 ± 0.5164. In addition, the change in vivo at 20 µmol/kg in test [1] (setting [3]) is -33.3%. Also, the change in vivo at 20 µmol/kg in test [1] (setting [4]) was -54.2%.
Regarding `CCCCNc1cc(C(=O)O[C@H](C)c2ccccc2)cc(S(N)(=O)=O)c1Oc1ccccc1` [NTP-2035, (R)-α-Methylbenzyl 3-Aminosulfonyl-5-N-butylamino-4-phenoxybenzoate], in test [2], the “% Inhibition of Control Values” came to 26% and the “% of Control Value” is given as 74.5%.
For `CCCCNc1cc(C(=O)NN2CCCCC2)cc(S(N)(=O)=O)c1Oc1ccccc1` [NTP-2023, N-Piperidinyl 3-Aminosulfonyl-5-N-butylamino-4-phenoxybenzamide] the same measures were 23% and 77.3%.
Consider `CCCCNc1cc(C(=O)OCc2ccc(OC)cc2)cc(S(N)(=O)=O)c1Oc1ccccc1` [NTP-2031, 4-Methoxybenzyl Aminosulfonyl-5-N-butylamino-4-phenoxybenzoate], for which, in test [2], the “% Inhibition of Control Values” is 7% and the “% of Control Value” came out at 92.6%.
For `CCCCCCCCCCOC(=O)c1cc(NCCCC)c(Oc2ccccc2)c(S(N)(=O)=O)c1` [NTP-2028, n-Decyl Aminosulfonyl-5-N-butylamino-4-phenoxybenzoate], in test [2], the “% Inhibition of Control Values” is given as 16% and the “% of Control Value” was 84.4%.
In the same order, the values of `CCCCNc1cc(C(=O)NC)cc(S(N)(=O)=O)c1Oc1ccccc1` [NTP-2016, N-Methyl 3-Aminosulfonyl-5-N-butylamino-4-phenoxybenzamide] are −7% and 107.2%.
With `CCCCNc1cc(C(=O)OCCCCc2ccccc2)cc(S(N)(=O)=O)c1Oc1ccccc1` [NTP-2034, 4-phenylbutyl 3-Aminosulfonyl-5-N-butylamino-4-phenoxybenzoate], in test [2], the “% Inhibition of Control Values” came to 21% and the “% of Control Value” stood at 78.9%.
For `CCCCNc1cc(C(=O)N[C@H](C)c2ccccc2)cc(S(N)(=O)=O)c1Oc1ccccc1` [NTP-2020, (R)-α-Methylbenzyl 3-Aminosulfonyl-5-N-butylamino-4-phenoxybenzamide] the same measures were 7% and 93.5%.
Consider `CCCCNc1cc(C(=O)N(CC)CC)cc(S(N)(=O)=O)c1Oc1ccccc1` [NTP-2007, N,N-Diethyl 3-Aminosulfonyl-5-butylamino-4-phenoxybenzamide], for which, in test [2], the inhibition at 10 µM stood at 30% and the remaining activity at 10 µM turned out to be 70.4%. Further, in test [1], the “Seizures Severity Mean ± SD” value worked out at 1.500 ± 1.354 and the “Seizures Mean ± SD (1 = yes, 0 = no)” value is given as 0.6000 ± 0.5164. Further, the change in vivo at 20 µmol/kg in test [1] (setting [3]) is -33.3%. For the same compound, the change in vivo at 20 µmol/kg in test [1] (setting [4]) is -37.5%.
On to `CCCCNc1cc(C(=O)N[C@@H](C)c2ccccc2)cc(S(N)(=O)=O)c1Oc1ccccc1` [NTP-2021, (S)-α-Methylbenzyl 3-Aminosulfonyl-5-N-butylamino-4-phenoxybenzamide], for which, in test [2], the “% Inhibition of Control Values” is on record as 27% and the “% of Control Value” worked out at 72.6%.
Take `CCCCNc1cc(C(=O)NCCCN(C)C)cc(S(N)(=O)=O)c1Oc1ccccc1` [NTP-2025]: in test [2], the inhibition at 10 µM is -27% and the remaining activity at 10 µM came to 127%.
In the case of `OC[C@@H](O)[C@@H](O)[C@H](O)[C@H](O)CO` [Mannitol, reference compound], in test [1], the “Seizures Severity Mean ± SD” value is reported as 0.5000 ± 0.7071 and the “Seizures Mean ± SD (1 = yes, 0 = no)” value came to 0.4000 ± 0.5164. Besides, the change in vivo at 20 µmol/kg in test [1] (setting [3]) was -55.5%. Further, in test [1] (setting [4]), the change in vivo at 20 µmol/kg is -79.2%.
In the case of `CCCCNc1cc(C(=O)OCC=C(C)C)cc(S(N)(=O)=O)c1Oc1ccccc1` [NTP-2029, 3-Methylbut-2-enyl Aminosulfonyl-5-N-butylamino-4-phenoxybenzoate], in test [2], the “% Inhibition of Control Values” was 12% and the “% of Control Value” was determined as 88.4%.
For `CCCCNc1cc(C(=O)NCc2ccccc2)cc(S(N)(=O)=O)c1Oc1ccccc1` [NTP-2018, N-Benzyl 3-Aminosulfonyl-5-N-butylamino-4-phenoxybenzamide] the same measures were 13% and 87.3%.

The values above are taken from patent US9682928B2 (NeuroPro Therapeutics, Inc., priority 2009, dated 2017).
